Structures can show the parent of a compound that is named as a salt.
target: T1, human β-Secretase (soluble part, AA 1-AA 460, sBACE-Fc) (Homo sapiens, UniProt P56817); experiment: TR-FRET assay (β-secretase enzyme); type: biochemical
T1 construct: The soluble part of the human β-Secretase (AA 1-AA 460) was cloned; made in house
Method: The enzyme used in the IGEN Cleavage-, Fluorescent-, TR-FRET- and BiaCore assays is described as follows:
The soluble part of the human β-Secretase (AA 1-AA 460) was cloned into the ASP2-Fc10-1-IRES-GFP-neoK mammalian expression vector. The gene was fused to the Fc domain of IgG1 (affinity tag) and stably cloned into SEEK 293 cells. Purified sBACE-Fc is stored in Tris buffer, pH 9.2 and has a purity of 95%.
Enzyme was diluted to 6 μg/mL and the substrate (Europium)[…](Qsy7) to 200 nM in reaction buffer (NaAcetate, chaps, triton x-100, EDTA pH 4.5). Compounds were diluted to the desired concentration in dimethyl sulfoxide (final dimethyl sulfoxide concentration in assay is 5%). […] Enzyme (9 μL) and 1 μL of compound in dimethyl sulfoxide was added to the plate, mixed and pre-incubated for 10 min. Substrate (10 μL) was added and the reaction proceeded in the dark for 15 min at RT. The reaction was stopped with the addition of 7 μL NaAcetate, pH 9. The fluorescence of the product was measured on a Victor II plate reader with an excitation wavelength of 340 nm and an emission wavelength of 615 nm. […] The dimethyl sulfoxide control defined the 100% activity level and 0% activity was defined by exclusion of the enzyme (using reaction buffer instead).

T1 sequence (P56817 22-460): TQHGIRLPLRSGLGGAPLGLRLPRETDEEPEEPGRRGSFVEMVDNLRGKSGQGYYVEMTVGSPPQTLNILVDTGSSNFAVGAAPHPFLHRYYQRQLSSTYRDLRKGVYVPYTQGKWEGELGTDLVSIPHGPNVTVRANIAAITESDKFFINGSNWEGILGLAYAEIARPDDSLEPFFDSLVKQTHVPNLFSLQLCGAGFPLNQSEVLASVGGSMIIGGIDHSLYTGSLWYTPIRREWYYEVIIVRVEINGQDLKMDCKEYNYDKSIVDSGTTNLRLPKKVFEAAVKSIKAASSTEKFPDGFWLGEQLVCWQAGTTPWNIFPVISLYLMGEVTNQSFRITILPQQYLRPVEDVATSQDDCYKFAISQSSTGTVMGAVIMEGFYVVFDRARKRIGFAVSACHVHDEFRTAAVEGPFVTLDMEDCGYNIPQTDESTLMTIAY

Row | SMILES | IC50 [nM]
1 | COc1ccc(F)c(-c2cccc(C3(c4ccc(S(F)(F)(F)(F)F)cc4)N=C(N)N(C)C3=O)c2)c1F (centres unmarked) [Example 47, 2-amino-5-(2′,6′-difluoro-3′-methoxybiphenyl-3-yl)-3-methyl-5-[4-(pentafluoro-λ^6-sulfanyl)phenyl]-3,5-dihydro-4H-imidazol-4-one] | 38
2 | CN1C(=O)C(c2cccc(S(F)(F)(F)(F)F)c2)(c2ccc(F)c(-c3cncnc3)c2)N=C1N (centres unmarked) [Example 48, 2-Amino-5-(4-fluoro-3-pyrimidin-5-ylphenyl)-3-methyl-5-[3-(pentafluoro-λ^6-sulfanyl)phenyl]-3,5-dihydro-4H-imidazol-4-one 0.25 acetate] | 487
3 | CN1C(=O)C(c2ccc(S(F)(F)(F)(F)F)cc2)(c2cccc(-c3cnccn3)c2)N=C1N (centres unmarked) [Example 36, 2-amino-3-methyl-5-[4-(pentafluoro-λ^6-sulfanyl)phenyl]-5-(3-pyrazin-2-ylphenyl)-3,5-dihydro-4H-imidazol-4-one] | 56
4 | COc1cncc(-c2cc(C3(c4ccc(S(F)(F)(F)(F)F)cc4)N=C(N)N(C)C3=O)ccc2F)c1 (centres unmarked) [Example 25, 2-Amino-5-[4-fluoro-3-(5-methoxypyridin-3-yl)phenyl]-3-methyl-5-[4-(pentafluoro-λ^6-sulfanyl)phenyl]-3,5-dihydro-4H-imidazol-4-one] | 30
5 | CN1C(=O)C(c2ccc(S(F)(F)(F)(F)F)cc2)(c2cccc(-c3cncc(C#N)c3)c2)N=C1N (centres unmarked) [Example 45, 5-(3-{2-amino-1-methyl-5-oxo-4-[4-(pentafluoro-λ^6-sulfanyl)phenyl]-4,5-dihydro-1H-imidazol-4-yl}phenyl)pyridine-3-carbonitrile] | 59
6 | CN1C(=O)C(c2ccc(S(F)(F)(F)(F)F)cc2)(c2cccc(-c3cccc(C#N)c3)c2)N=C1N (centres unmarked) [Example 41, 3′-{2-amino-1-methyl-5-oxo-4-[4-(pentafluoro-λ^6-sulfanyl)phenyl]-4,5-dihydro-1H-imidazol-4-yl}biphenyl-3-carbonitrile] | 143
7 | COc1ccc(F)c(-c2cccc(C3(c4ccc(S(F)(F)(F)(F)F)cc4)N=C(N)N(C)C3=O)c2)c1 (centres unmarked) [Example 38, 2-amino-5-(2′-fluoro-5′-methoxybiphenyl-3-yl)-3-methyl-5-[4-(pentafluoro-λ^6 sulfanyl)phenyl]-3,5-dihydro-4H-imidazol-4-one] | 71
8 | COc1cccc(-c2cccc(C3(c4ccc(S(F)(F)(F)(F)F)cc4)N=C(N)N(C)C3=O)c2)c1 (centres unmarked) [Example 40, 2-amino-5-(3′-methoxybiphenyl-3-yl)-3-methyl-5-[4-(pentafluoro-λ^6-sulfanyl)phenyl]-3,5-dihydro-4H-imidazol-4-one] | 81
9 | COc1cncc(-c2cc(C3(c4ccc(S(F)(F)(F)(F)F)cc4)N=C(N)N(C)C3=O)ccc2F)c1 (single isomer, unassigned) [26 isomer 2] | 465
10 | COc1cncc(-c2cc(C3(c4ccc(S(F)(F)(F)(F)F)cc4)N=C(N)N(C)C3=O)ccc2F)c1 (single isomer, unassigned) [26 isomer 1] | 13
11 | CN1C(=O)C(c2ccc(S(F)(F)(F)(F)F)cc2)(c2ccc(F)c(-c3cnccn3)c2)N=C1N (centres unmarked) [Example 30, 2-amino-5-(4-fluoro-3-pyrazin-2-ylphenyl)-3-methyl-5-[4-(pentafluoro-λ^6-sulfanyl)phenyl]-3,5-dihydro-4H-imidazol-4-one 0.75 acetate] | 124
12 | CN1C(=O)C(c2ccc(S(F)(F)(F)(F)F)cc2)(c2cccc(-c3cc(C#N)ccn3)c2)N=C1N (centres unmarked) [Example 42, 2-(3-{2-amino-1-methyl-5-oxo-4-[4-(pentafluoro-λ^6-sulfanyl)phenyl]-4,5-dihydro-1H-imidazol-4-yl}phenyl)pyridine-4-carbonitrile] | 405
13 | CN1C(=O)C(c2ccc(S(F)(F)(F)(F)F)cc2)(c2cccc(-c3cnccc3C#N)c2)N=C1N (centres unmarked) [Example 34, 3-(3-{2-amino-1-methyl-5-oxo-4-[4-(pentafluoro-λ^6-sulfanyl)phenyl]-4,5-dihydro-1H-imidazol-4-yl}phenyl)pyridine-4-carbonitrile] | 467
14 | CN1C(=O)C(c2ccc(S(F)(F)(F)(F)F)cc2)(c2cccc(-c3cccnc3F)c2)N=C1N (centres unmarked) [Example 31, 2-amino-5-[3-(2-fluoropyridin-3-yl)phenyl]-3-methyl-5-[4-(pentafluoro-λ^6-sulfanyl)phenyl]-3,5-dihydro-4H-imidazol-4-one] | 83
15 | CN1C(=O)C(c2ccc(S(F)(F)(F)(F)F)cc2)(c2cccc(-c3cccnc3)c2)N=C1N (centres unmarked) [Example 33, 2-amino-3-methyl-5-[4-(pentafluoro-λ^6-sulfanyl)phenyl]-5-(3-pyridin-3-ylphenyl)-3,5-dihydro-4H-imidazol-4-one] | 52
16 | CN1C(=O)C(c2ccc(S(F)(F)(F)(F)F)cc2)(c2ccc(F)c(-c3cncc(C#N)c3)c2)N=C1N (centres unmarked) [Example 23, 5-(5-{2-Amino-1-methyl-5-oxo-4-[4-(pentafluoro-A-sulfanyl)phenyl]-4,5-dihydro-1H-imidazol-4-yl}-2-fluorophenyl)nicotinonitrile 0.25 acetate] | 101
17 | COc1cncc(-c2cc(C3(c4cccc(S(F)(F)(F)(F)F)c4)N=C(N)N(C)C3=O)ccc2F)c1 (centres unmarked) [Example 51, 2-Amino-5-[4-fluoro-3-(5-methoxypyridin-3-yl)phenyl]-[3-methyl-5-3-(pentafluoro-6-sulfanyl)phenyl]-3,5-dihydro-4H-imidazol-4-one] | 305
18 | CN1C(=O)C(c2cccc(S(F)(F)(F)(F)F)c2)(c2ccc(F)c(-c3cncc(F)c3)c2)N=C1N (centres unmarked) [Example 52, 2-Amino-5-[4-fluoro-3-(5-fluoropyridin-3-yl)phenyl]-3-methyl-5-[3-(pentafluoro-λ^6-sulfanyl)phenyl]-3,5-dihydro-4H-imidazol-4-one] | 1190
19 | CN1C(=O)C(c2ccc(S(F)(F)(F)(F)F)cc2)(c2cccc(-c3cn(C)cn3)c2)N=C1N (centres unmarked) [Example 44, 2-amino-3-methyl-5-[3-(1-methyl-1H-imidazol-4-yl)phenyl]-5-[4-(pentafluoro-λ^6-sulfanyl)phenyl]-3,5-dihydro-4H-imidazol-4-one] | 643
20 | CN1C(=O)C(c2cccc(S(F)(F)(F)(F)F)c2)(c2ccc(F)c(-c3cncc(C#N)c3)c2)N=C1N (centres unmarked) [Example 49, 5-(5-{2-Amino-1-methyl-5-oxo-4-[3-(pentafluoro-λ^6-sulfanyl)phenyl]-4,5-dihydro-1H-imidazol-4-yl}-2-fluorophenyl)nicotinonitrile 0.25 acetate] | 1140
21 | COc1cccc(-c2cc(C3(c4ccc(N=S(C)(C)=O)cc4)N=C(N)N(C)C3=O)ccc2F)c1 (centres unmarked) [Example 5, 2-Amino-5-(4-{[dimethyl(oxido)-λ^4-sulfanylidene]amino}phenyl)-5-(6-fluoro-3′-methoxybiphenyl-3-yl)-3-methyl-3,5-dihydro-4H-imidazol-4-one hydrochloride] | 756
22 | COc1cccc(-c2cccc(C3(c4ccc(S(F)(F)(F)(F)F)cc4)N=C(N)N(C)C3=O)c2)c1F (single isomer, unassigned) [37 isomer 2] | 2630
23 | CN1C(=O)C(c2ccc(S(F)(F)(F)(F)F)cc2)(c2ccc(F)c(-c3cncnc3)c2)N=C1N (centres unmarked) [Example 22, 2-Amino-5-(4-fluoro-3-pyrimidin-5-ylphenyl)-3-methyl-5-[4-(pentafluoro-λ^6-sulfanyl)phenyl]-3,5-dihydro-4H-imidazol-4-one] | 49
24 | CN1C(=O)C(c2ccc(S(F)(F)(F)(F)F)cc2)(c2ccc(F)c(-c3cncc(F)c3)c2)N=C1N (centres unmarked) [Example 27, 2-Amino-5-[4-fluoro-3-(5-fluoropyridin-3-yl)phenyl]-3-methyl-5-[4-(pentafluoro-λ^6-sulfanyl)phenyl]-3,5-dihydro-4H-imidazol-4-one 0.25 acetate] | 81
25 | CN1C(=O)C(c2cccc(S(F)(F)(F)(F)F)c2)(c2ccc(F)c(-c3cccnc3)c2)N=C1N (centres unmarked) [Example 50, 2-Amino-5-(4-fluoro-3-pyridin-3-ylphenyl)-3-methyl-5-[3-(pentafluoro-λ^6-sulfanyl)phenyl]-3,5-dihydro-4H-imidazol-4-one] | 317
26 | CN1C(=O)C(c2ccc(S(F)(F)(F)(F)F)cc2)(c2ccc(F)c(-c3cccnc3)c2)N=C1N (centres unmarked) [Example 24, 2-Amino-5-(4-fluoro-3-pyridin-3-ylphenyl)-3-methyl-5-[4-(pentafluoro-λ^6-sulfanyl)phenyl]-3,5-dihydro-4H-imidazol-4-one] | 53
27 | COc1cccc(-c2cccc(C3(c4ccc(S(F)(F)(F)(F)F)cc4)N=C(N)N(C)C3=O)c2)c1F (single isomer, unassigned) [37 isomer 1] | 49
28 | CN1C(=O)C(c2ccc(S(F)(F)(F)(F)F)cc2)(c2cccc(-c3cc(C#N)ccc3F)c2)N=C1N (centres unmarked) [Example 39, 2-amino-5-(2′-fluoro-5′-carbonitrilebiphenyl-3-yl)-3-methyl-5-[4-(pentafluoro-λ^6-sulfanyl)phenyl]-3,5-dihydro-4H-imidazol-4-one] | 356
29 | CN1C(=O)C(c2ccc(S(F)(F)(F)(F)F)cc2)(c2cccc(-c3cscn3)c2)N=C1N (centres unmarked) [Example 43, 2-amino-3-methyl-5-[4-(pentafluoro-λ^6-sulfanyl)phenyl]-5-[3-(1,3-thiazol-4-yl)phenyl]-3,5-dihydro-4H-imidazol-4-one] | 673
